pIC50: −log10 of the molar value. Where a name gives a salt, the structure may show the parent alone.

The experiment has as its target T1, endothelin-converting enzyme (ECE) (Homo sapiens, UniProt P42892).
T1 construct: The ECE activity for identifying the substances described herein originates from the endothelial cell line EA.hy926; endogenous in cells; host or cells: EA.hy926 endothelial cells (intact, confluent)
T1 sequence (P42892 1-770): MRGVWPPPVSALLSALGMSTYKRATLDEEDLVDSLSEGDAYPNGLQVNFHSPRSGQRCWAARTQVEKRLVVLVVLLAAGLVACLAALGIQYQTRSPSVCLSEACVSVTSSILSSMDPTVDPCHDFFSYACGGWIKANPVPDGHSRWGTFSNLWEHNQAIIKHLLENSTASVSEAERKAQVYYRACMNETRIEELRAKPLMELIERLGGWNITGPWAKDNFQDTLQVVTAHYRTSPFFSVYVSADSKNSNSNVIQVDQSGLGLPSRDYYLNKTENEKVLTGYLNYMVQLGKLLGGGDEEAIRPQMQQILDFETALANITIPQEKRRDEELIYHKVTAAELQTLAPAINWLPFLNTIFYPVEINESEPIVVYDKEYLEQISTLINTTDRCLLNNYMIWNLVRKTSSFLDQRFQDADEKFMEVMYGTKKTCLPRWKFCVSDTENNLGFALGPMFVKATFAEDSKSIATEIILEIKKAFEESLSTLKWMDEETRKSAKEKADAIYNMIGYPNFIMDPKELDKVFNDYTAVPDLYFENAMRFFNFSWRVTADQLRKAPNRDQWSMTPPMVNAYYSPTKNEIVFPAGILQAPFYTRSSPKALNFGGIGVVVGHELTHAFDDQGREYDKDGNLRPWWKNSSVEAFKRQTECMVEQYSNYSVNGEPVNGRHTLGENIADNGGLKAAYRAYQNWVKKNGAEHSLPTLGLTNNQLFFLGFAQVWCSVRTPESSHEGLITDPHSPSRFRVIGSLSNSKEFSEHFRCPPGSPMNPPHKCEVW
The experiment in a line: cell-based. The conditions noted are these: ECE activity of endothelial cell line EA.hy926; 1–100 nM bET; 100 μM thiophane added; ET-1 formed measured by EIA. How it is done: Functional in Vitro Assay
The ECE activity for identifying the substances described herein originates from the endothelial cell line EA.hy926. The ECE-inhibitory action of the compounds in this invention is tested as described below:
For 12–48 h, EA.hy296 cells are cultivated in a 384-well cell culture dish in 80 μl of cell culture medium (DMEM supplemented with 10% FCS, 2 mM glutamine, 10 mM HEPES, 1 mM sodium pyruvate and 1×HAT (Gibco 21060-017)) in a humid atmosphere (100% atmospheric humidity) enriched with 7% v/v of CO2 at 37° C. After confluence has been reached, and immediately prior to the actual beginning of measurement, the supernatant of the cell culture is pipetted off and replaced by 40 or 80 μl of the same medium to which 1–100 nM bET has been added. After 30–120 minutes under otherwise identical cell culture conditions, the supernatant is pipetted off. Cellular components are removed by centrifugation in a customary bench-top centrifuge (10 000 rpm; 2 minutes). The resulting clear supernatant is either used directly as described below or shock-frozen in dry ice and then stored at −20° C. Directly removed supernatant or thawed, stored supernatant are measured in an enzyme immunoassay (EIA).
To determine the inhibitory activity of ECE inhibitors, EA.hy296 cells are incubated with the test substance in a concentration between 0.001–5 μM under the conditions described above. To minimize possible interference by neutral endopeptidase (NEP24.11), 100 μM of thiophane are added during the bET incubation of the EA.hy926 cells.
The proportion of the ET-1 formed by ECE cleavage is measured as follows: depending on the amount of converted bET, the samples are, prior to use, diluted 2–100-fold with EIA. An appropriate dilution of the cell supernatant is incubated in 100 μl portions for 14–18 hours in the sample tubes of the EIA kit Biomedica B1-20052.
`CC(=O)Nc1ccc(NC(=O)c2cc3cc(NC(=O)CC(C)(C)C)ccc3n2Cc2ccccc2F)cc1` [Example 60] had a pIC50 of 6.15.
Next, `CC(C)(C)CC(=O)Nc1ccc2c(c1)cc(C(=O)Nc1ccc(NS(C)(=O)=O)cc1)n2Cc1ccccc1F` [Example 58]: 5.80.
Next, `CC(C)(C)CC(=O)Nc1ccc2c(c1)cc(C(=O)Nc1ccc(N)cc1)n2Cc1ccccc1F` [Example 57, N-(4-Aminophenyl)-5-[(3,3-dimethylbutanoyl)amino]-1-(2-fluorobenzyl)-1H-indole-2-carboxamide hydrochloride]: 5.82.

Values taken from patent US7045544B2, “Substituted 2,5-diamidoindoles as ECE inhibitors for the treatment of cardiovascular diseases” (Bayer HealthCare AG, priority 2001, dated 2006).
